The results in this text go back to patent US9073892B2, “Indazolyl triazol derivatives” (Merck Serono S.A., priority 2010, dated 2015).

pIC50: −log10 of the molar value. A value given as a limit tells only on which side of the number the result lay.

In experiment [1] the test system is IL1β-induced IL8 release in THP1 cells. In words: IRAK IL8 secretion functional assay. The experiment is classed as cell-based. To be noted: Homo sapiens; THP-1 cells, IL1β 100 ng/ml overnight, IL8 by HTRF; read-out: IC50, Secretion THP-1/IL-β induced IL8 release. An excerpt: IRAK IL8 Secretion Functional Assay:
THP1 cells are human monocytes derived from acute monocytic leukemia. IL1β receptor expressed on the surface membrane of THP1 cells induced IL8 release. IRAKs are kinase signaling downstream of TLRs and TNF, IL-18, IL-33 and IL-1 receptors.
In cells, IRAK4 is upstream of IRAK1.
The Human IL8 Kit, provided by CysBio International based in Bagnols/Cèze FR, allows for the quantitative determination of IL-8 in cell-culture supernatants.
Anti-cytokine IL8 antibodies are respectively labeled with europium Cryptate and XL665. Upon their binding to IL-8 molecules, the two antibodies come into close proximity, allowing FRET (Fluorescence Resonance Energy Transfer) to occur. This FRET increases proportionally to IL-8 concentrations and be converted in IL8 pg amounts.
THP-1 cells are seeded on Day 1 in 384 well plate with RPMI 1640 at a density of 30 000 cells/well. Compounds 4×/2% DMSO (range of concentrations from 20 μM to 1 nM) and IL1β 4× at 100 ng/ml final are added to cells overnight at 37° C., 5% CO2. Measurement of IL-8 secretion is done by mixing on Day2 10 μl of supernatant with 10 μl of a mix solution of europium Cryptate and XL665 (v:v) as described by supplier.
HTRF (homogeneous time resolved fluorescence) signal is measured after 3 hours incubation time at 30° C. with a BMG Pherastar reader or equivalent.
On the technique in general: Time-resolved FRET reads energy transfer from a long-lived donor to a nearby acceptor.

In a further experiment the test system is T1, IRAK1/4 human.
T1 construct: fused on or other part: His tag and TEV cleavage site at the N-terminus
In words: IRAK1/4 phosphorylation IC50 (enzymatic assay, table 2). The experiment is classed as biochemical. To be noted: human IRAK1/4 phosphorylation. The gist of the method:
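In 384-well plates, reactions in 50 mM Hepes pH7.0 buffer with MgCl2, DTT, EGTA and BSA combined ATP, compounds in DMSO at 20 µM to 1 nM, and either His-TEV-tagged human IRAK-1 or His-TEV-tagged human IRAK-4 plus STK1-biotin peptide. They ran for 2 or 3 hours alongside 2% DMSO controls. Each value is an IC50 for inhibition.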

Take `CN1CCCC2(CCCN(C(=O)c3ccc(-n4cc(-c5n[nH]c6ccccc56)nn4)cc3)C2)C1` (centres unmarked) [Example 76, 2-{4-[4-(1H-indazol-3-yl)-1H-1,2,3-triazol-1-yl]benzoyl}-8-methyl-2,8-diazaspiro[5.5]undecane]: the pIC50 (in experiment [1]; in the experiment with IRAK1/4 human) was more than 7.00 in each case.

Turning to `CN1CCCC(CNC(=O)c2ccc(-n3cc(-c4n[nH]c5ccccc45)nn3)cc2)C1` (centres unmarked) [Example 77, 4-[4-(1H-indazol-3-yl)-1H-1,2,3-triazol-1-yl]-N-[(1-methylpiperidin-3-yl)methyl]benzamide], the pIC50 (in experiment [1]; with IRAK1/4 human) was 6.00 to 7.00 in each case.

As for `CN1CCN(C(=O)Cc2cccc(-n3cc(-c4n[nH]c5ccccc45)nn3)c2)CC1` [Example 79, 3-(1-{3-[2-(4-methylpiperazin-1-yl)-2-oxoethyl]phenyl}-1H-1,2,3-triazol-4-yl)-1H-indazole], the pIC50 (in experiment [1]; in the experiment on IRAK1/4 human) was 5.30 to 6.00 throughout.

With `c1cc(CCN2CCOCC2)cc(-n2cc(-c3n[nH]c4ccccc34)nn2)c1` [Example 80, 3-{1-[3-(2-morpholin-4-ylethyl)phenyl]-1H-1,2,3-triazol-4-yl}-1H-indazole], the pIC50 (in experiment [1]; in the experiment on IRAK1/4 human) was 5.30 to 6.00 each time.

Regarding `O=C(c1ccc(-n2cc(-c3n[nH]c4ccccc34)nn2)cc1F)N1CCOCC1` [Example 81, 3-{1-[3-fluoro-4-(morpholin-4-ylcarbonyl)phenyl]-1H-1,2,3-triazol-4-yl}-1H-indazole], the pIC50 (in experiment [1]; in the experiment with IRAK1/4 human) was 6.00 to 7.00 each time.

As for `O=C(Cc1cccc(-n2cc(-c3n[nH]c4ccccc34)nn2)c1)N1CCCC1` [Example 82, 3-{1-[3-(2-oxo-2-pyrrolidin-1-ylethyl)phenyl]-1H-1,2,3-triazol-4-yl}-1H-indazole], the pIC50 (in experiment [1]; in the experiment with IRAK1/4 human) was 5.30 to 6.00 throughout.

As to `c1cc(CCN2CCCC2)cc(-n2cc(-c3n[nH]c4ccccc34)nn2)c1` [Example 83, 3-{1-[3-(2-pyrrolidin-1-ylethyl)phenyl]-1H-1,2,3-triazol-4-yl}-1H-indazole], the pIC50 was 6.00 to 7.00 in experiment [1] and 5.30 to 6.00 in the experiment with IRAK1/4 human.

With `O=C(c1ccc(-n2cc(-c3n[nH]c4ccc(C5CCNCC5)cc34)nn2)cc1)N1CCOCC1` [Example 84, 3-{1-[4-(morpholin-4-ylcarbonyl)phenyl]-1H-1,2,3-triazol-4-yl}-5-piperidin-4-yl-1H-indazole], the pIC50 is 5.30 to 6.00 in experiment [1] and more than 7.00 in the experiment with IRAK1/4 human.

Take `c1cc(CCCN2CCOCC2)cc(-n2cc(-c3n[nH]c4ccccc34)nn2)c1` [Example 86, 3-{1-[3-(3-morpholin-4-ylpropyl)phenyl]-1H-1,2,3-triazol-4-yl}-1H-indazole]: the pIC50 (in experiment [1]; with IRAK1/4 human) was 5.30 to 6.00 each time.

`c1cc(CCCN2CCCC2)cc(-n2cc(-c3n[nH]c4ccccc34)nn2)c1` [Example 88, 3-{1-[3-(3-pyrrolidin-1-ylpropyl)phenyl]-1H-1,2,3-triazol-4-yl}-1H-indazole]: the pIC50 in experiment [1] was 6.00 to 7.00; in the experiment with IRAK1/4 human it was 5.30 to 6.00.

In the case of `O=C(c1ccc(-n2cc(-c3n[nH]c4ccccc34)nn2)cc1Cl)N1CCOCC1` [Example 89, 3-{1-[3-chloro-4-(morpholin-4-ylcarbonyl)phenyl]-1H-1,2,3-triazol-4-yl}-1H-indazole], the pIC50 in experiment [1] was 5.30 to 6.00; in the experiment on IRAK1/4 human, 6.00 to 7.00.

Regarding `CN(C)CC1CCN(C(=O)c2ccc(-n3cc(-c4n[nH]c5ccccc45)nn3)cc2)CC1` [Example 91, 1-(1-{4-[4(1H-indazol-3-yl)-1H-1,2,3-triazol-1-yl]benzoyl}piperidin-4-yl)-N,N-dimethylmethanamine], the pIC50 (in experiment [1]; with IRAK1/4 human) was 6.00 to 7.00 each time.

Consider `CN(C)CCC1CCCCN1C(=O)c1ccc(-n2cc(-c3n[nH]c4ccccc34)nn2)cc1` (centres unmarked) [Example 92], for which the pIC50 (in experiment [1]; in the experiment on IRAK1/4 human) was 6.00 to 7.00 in each case.

With `O=C(c1ccc(-n2cc(-c3n[nH]c4ccc(CO)cc34)nn2)cc1)N1CCOCC1` [Example 93, (3-{1-[4(morpholin-4-ylcarbonyl)phenyl]-1H-1,2,3-triazol-4-yl}-1H-indazol-5-yl)methanol], the pIC50 in experiment [1] is 5.30 to 6.00; with IRAK1/4 human, 6.00 to 7.00.

As for `O=C(c1ccc(-n2cc(-c3n[nH]c4ccc(Cn5nc(-c6cc(F)cc(F)c6)ccc5=O)cc34)nn2)cc1)N1CCOCC1` [Example 94, 6-(3,5-difluorophenyl)-2-[(3-{1-[4-(morpholin-4-ylcarbonyl)phenyl]-1H-1,2,3-triazol-4-yl}-1H-indazol-5-yl)methyl]pyridazin-3(2H)-one], the pIC50 in experiment [1] is 6.00 to 7.00; with IRAK1/4 human it was more than 7.00.

As for `O=C(c1ccc(-n2cc(-c3n[nH]c4ccc(Cn5ncccc5=O)cc34)nn2)cc1)N1CCOCC1` [Example 95, 2-[(3-{1-[4-(morpholin-4-ylcarbonyl)phenyl]-1H-1,2,3-triazol-4-yl}-1H-indazol-5-yl)methyl]pyridazin-3(2H)-one], the figures for the pIC50 (in experiment [1]; in the experiment on IRAK1/4 human) were 5.30 to 6.00 and 6.00 to 7.00, respectively.

As for `O=C(c1ccc(-n2cc(-c3n[nH]c4ccccc34)nn2)cc1)N1CCC[C@@H](O)C1` [Example 96, (3R)-1-{4-[4-(1H-indazol-3-yl)-1H-1,2,3-triazol-1-yl]benzoyl}piperidin-3-ol], the pIC50 (in experiment [1]; in the experiment with IRAK1/4 human) was 6.00 to 7.00 each time.

In the case of `O=C(c1ccc(-n2cc(-c3n[nH]c4ccccc34)nn2)cc1)N1CCC[C@H](O)C1` [Example 97, (3S)-1-{4-[4-(1H-indazol-3-yl)-1H-1,2,3-triazol-1-yl]benzoyl}piperidin-3-ol], the pIC50 (in experiment [1]; in the experiment on IRAK1/4 human) was 6.00 to 7.00 throughout.

For `CN1CCC(n2cc(NC(=O)c3ccc(-n4cc(-c5n[nH]c6ccccc56)nn4)cc3)cn2)CC1` [Example 98, 4-[4-(1H-indazol-3-yl)-1H-1,2,3-triazol-1-yl]-N-[1-(1-methylpiperidin-4-yl)-1H-pyrazol-4-yl]benzamide], the pIC50 in experiment [1] was 6.00 to 7.00; in the experiment with IRAK1/4 human, more than 7.00.

On to `O=C(c1ccc(-n2cc(-c3n[nH]c4ccccc34)nn2)cc1)N1CCC[C@H]1CO` [Example 99], for which the pIC50 (in experiment [1]; in the experiment on IRAK1/4 human) was 6.00 to 7.00 throughout.

Regarding `O=C(c1ccc(-n2cc(-c3n[nH]c4ccccc34)nn2)cc1)N1CCCCC1CO` (centres unmarked) [Example 100, (1-{4-[4-(1H-indazol-3-yl)-1H-1,2,3-triazol-1-yl]benzoyl}piperidin-2-yl)methanol], the pIC50 (in experiment [1]; with IRAK1/4 human) was 6.00 to 7.00 in each case.

`O=C(c1ccc(-n2cc(-c3n[nH]c4ccccc34)nn2)cc1C(F)(F)F)N1CCOCC1` [Example 101, 3-{1-[4-(morpholin-4-ylcarbonyl)-3-(trifluoromethyl)phenyl]-1H-1,2,3-triazol-4-yl}-1H-indazole]: the pIC50 was 5.30 to 6.00 in experiment [1] and 6.00 to 7.00 with IRAK1/4 human.

For the molecule `O=C(c1ccc(-n2cc(-c3n[nH]c4ccc(Cn5nc(-c6ccncc6)ccc5=O)cc34)nn2)cc1)N1CCOCC1` [Example 103, 2-[(3-{1-[4-(morpholin-4-ylcarbonyl)phenyl]-1H-1,2,3-triazol-4-yl}-1H-indazol-5-yl)methyl]-6-pyridin-4-ylpyridazin-3(2H)-one], the pIC50 in experiment [1] was 6.00 to 7.00; in the experiment on IRAK1/4 human it was more than 7.00.

As to `CN1CC=C(c2ccc3[nH]nc(-c4cn(-c5ccc(C(=O)N6CCOCC6)cc5)nn4)c3c2)CC1` [Example 104, 5-(1-methyl-1,2,3,6-tetrahydropyridin-4-yl)-3-{1-[4-(morpholin-4-ylcarbonyl)phenyl]-1H-1,2,3-triazol-4-yl}-1H-indazole], the pIC50 in experiment [1] is 6.00 to 7.00; with IRAK1/4 human, more than 7.00.

Regarding `CC(=O)N1CCC(c2ccc3[nH]nc(-c4cn(-c5ccc(C(=O)N6CCOCC6)cc5)nn4)c3c2)CC1` [Example 105, 5-(1-acetylpiperidin-4-yl)-3-{1-[4-(morpholin-4-ylcarbonyl)phenyl]-1H-1,2,3-triazol-4-yl}-1H-indazole], the pIC50 is 5.30 to 6.00 in experiment [1] and 6.00 to 7.00 in the experiment with IRAK1/4 human.

In the case of `O=C(c1ccc(-n2cc(-c3n[nH]c4ccc(C5=CCN(Cc6ccccc6)CC5)cc34)nn2)cc1)N1CCOCC1` [Example 106, 5-(1-benzyl-1,2,3,6-tetrahydropyridin-4-yl)-3-{1-[4-(morpholin-4-ylcarbonyl)phenyl]-1H-1,2,3-triazol-4-yl}-1H-indazole], the pIC50 in experiment [1] was 5.30 to 6.00; in the experiment on IRAK1/4 human it was 6.00 to 7.00.

For the molecule `COC[C@@H]1CCCN1C(=O)c1ccc(-n2cc(-c3n[nH]c4ccccc34)nn2)cc1` [Example 108, 3-[1-(4-{[(2S)-2-(methoxymethyl)pyrrolidin-1-yl]carbonyl}phenyl)-1H-1,2,3-triazol-4-yl]-1H-indazole], the figures for the pIC50 (in experiment [1]; with IRAK1/4 human) were 6.00 to 7.00 and more than 7.00, respectively.

For the molecule `COC1CCN(C(=O)c2ccc(-n3cc(-c4n[nH]c5ccccc45)nn3)cc2)CC1` [Example 109, 3-(1-{4-[(4-methoxypiperidin-1-yl)carbonyl]phenyl}-1H-1,2,3-triazol-4-yl)-1H-indazole], the pIC50 (in experiment [1]; with IRAK1/4 human) was 6.00 to 7.00 in each case.
